Laboratory results: patent US20230227449A1, “AMIDOPYRIMIDONE DERIVATIVES” (Hoffmann-La Roche Inc., priority 2020, published 2023)

Biological target: Recombinant human Mat2a (Homo sapiens, UniProt P31153)
Test: Determination of Mat2A activity (384 well absorbance-based assay, Biomol Green)
Format: biochemical
Details: 12.5 nM Mat2A, 100 μM ATP and Methionine, 2% DMSO, 120 minutes at RT, absorbance at 635 nm
Procedure: Determination of Mat2A activity
Measurement of Mat2A inhibition is performed in 384 well format absorbance-based assay. Recombinant human Mat2a (12.5 nM) and serial diluted compounds in DMSO (range of concentrations from […] to 508 pM) or controls (DMSO) are incubated for 15 minutes at room temperature (RT) in assay buffer containing 50 mM HEPES pH 7.5, 50 mM KCl, 50 mM MgCl2, 0.01% Tween 20 and 10 mM DTT. The reaction is initiated by the addition of the combined substrates ATP and Methionine, each at a final concentration of 100 μM. Final assay condition are 12.5 nM Mat2A, 100 μM ATP and Methionine Substrates and 2% DMSO. After 120 minutes of incubation at RT, the reaction is stopped by the addition of Biomol Green. The absorbance signal is measured at λ=635 nm with a multiplate reader (BMG Pherastar reader or equivalent) after 30 min of equilibration at RT.

Recombinant human Mat2a, sequence (P31153 whole entry): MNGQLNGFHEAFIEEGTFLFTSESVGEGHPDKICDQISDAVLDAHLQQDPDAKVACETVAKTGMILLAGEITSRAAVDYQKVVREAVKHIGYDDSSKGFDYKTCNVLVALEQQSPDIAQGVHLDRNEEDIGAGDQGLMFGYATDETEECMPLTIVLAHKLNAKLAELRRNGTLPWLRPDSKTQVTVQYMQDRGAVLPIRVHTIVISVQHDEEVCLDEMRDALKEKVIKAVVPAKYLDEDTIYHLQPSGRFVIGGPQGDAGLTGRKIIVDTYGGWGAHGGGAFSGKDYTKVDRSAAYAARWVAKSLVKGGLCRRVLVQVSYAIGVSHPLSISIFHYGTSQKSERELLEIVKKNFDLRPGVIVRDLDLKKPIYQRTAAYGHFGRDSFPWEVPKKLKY

Row | SMILES | IC50
1 | CC(C1CCCO1)n1c(=O)nc(N)c2ccc(C3CC3)nc21 (stereo not shown) [Example 21, 4-amino-7-cyclopropyl-1-(1-(tetrahydrofuran-2-yl)ethyl)pyrido[2,3-d]pyrimidin-2(1H)-one] | 86 nM
2 | Cc1ncccc1-n1c(=O)nc(N)c2ccc(C3COC3)cc21 [Example 22, 4-amino-1-(2-methylpyridin-3-yl)-7-(oxetan-3-yl)quinazolin-2(1H)-one] | 21 nM
3 | Cc1c(F)cccc1-n1c(=O)nc(N)c2ccc(C3CC3)nc21 [Example 25, 4-amino-7-cyclopropyl-1-(3-fluoro-2-methylphenyl)pyrido[2,3-d]pyrimidin-2(1H)-one] | < 13 nM
4 | Nc1nc(=O)n([C@@H]2CCCOC2)c2nc(C3CC3)ccc12 [Example 26, 4-amino-7-cyclopropyl-1-[(3R)-oxan-3-yl]pyrido[2,3-d]pyrimidin-2-one] | < 13 nM
5 | Nc1nc(=O)n([C@H]2CCCOC2)c2nc(C3CC3)ccc12 [Example 27, 4-amino-7-cyclopropyl-1-[(3S)-oxan-3-yl]pyrido[2,3-d]pyrimidin-2-one] | 42 nM
6 | CC1COCC1n1c(=O)nc(N)c2ccc(C3CC3)nc21 (stereo not shown) [Example 28, 4-amino-7-cyclopropyl-1-(4-methyltetrahydro-furan-3-yl)pyrido[2,3-d]pyrimidin-2(1H)-one] | 57 nM
7 | Cc1ncccc1-n1c(=O)nc(N)c2ccc(C(F)(F)F)cc21 [Example 29, 4-amino-1-(2-methylpyridin-3-yl)-7-(trifluoromethyl)quinazolin-2-one] | < 13 nM
8 | Cc1ncccc1-n1c(=O)nc(N)c2ccc(OC3CC3)cc21 [Example 31, 4-amino-7-cyclopropyloxy-1-(2-methylpyridin-3-yl)quinazolin-2-one] | 18 nM
9 | Cc1ncccc1-n1c(=O)nc(N)c2ccc(C(F)(F)F)nc21 [Example 32, 4-amino-1-(2-methylpyridin-3-yl)-7-(trifluoromethyl)pyrido[2,3-d]pyrimidin-2(1H)-one] | < 13 nM
10 | Nc1nc(=O)n(C2CCC(O)C2)c2nc(C3CC3)ccc12 (stereo not shown) [Example 33, 4-amino-7-cyclopropyl-1-(3-hydroxycyclopentyl)pyrido[2,3-d]pyrimidin-2(1H)-one] | < 13 nM
11 | Cc1ncccc1-n1c(=O)nc(N)c2ccc(OC(F)F)cc21 [Example 34] | < 13 nM
12 | Cc1ncccc1-n1c(=O)nc(N)c2ccc(C(F)F)cc21 [Example 35, 4-amino-7-(difluoromethyl)-1-(2-methylpyridin-3-yl)quinazolin-2(1H)-one] | < 13 nM
13 | Cc1ncccc1-n1c(=O)nc(N)c2cc(C#N)c(C3CC3)nc21 [Example 37, 4-amino-7-cyclopropyl-1-(2-methylpyridin-3-yl)-2-oxo-1,2-dihydropyrido[2,3-d]pyrimidine-6-carbonitrile] | 15 nM
14 | COc1c(C#N)cccc1-n1c(=O)nc(N)c2ccc(C(C)C)nc21 [Example 38, 3-(4-amino-7-isopropyl-2-oxopyrido[2,3-d]pyrimidin-1(2H)-yl)-2-methoxybenzonitrile] | < 13 nM
15 | COc1ccc2c(N)nc(=O)n(-c3cccnc3C)c2c1 [Example 39, 4-amino-7-methoxy-1-(2-methylpyridin-3-yl)quinazolin-2(1H)-one] | < 13 nM
16 | Cc1ncccc1-n1c(=O)nc(N)c2ccc(OC(F)(F)F)cc21 [Example 40, 4-amino-1-(2-methylpyridin-3-yl)-7-(trifluoromethoxy)quinazolin-2(1H)-one] | < 13 nM
17 | Cc1ncccc1-n1c(=O)nc(N)c2ccc(C3=COCC3)nc21 [Example 41, 4-amino-7-(4,5-dihydrofuran-3-yl)-1-(2-methylpyridin-3-yl)pyrido[2,3-d]pyrimidin-2 (1H)-one] | 45 nM
18 | Cc1ncncc1-n1c(=O)nc(N)c2ccc(C3CC3)nc21 [Example 42, 4-amino-7-cyclopropyl-1-(4-methylpyrimidin-5-yl)pyrido[2,3-d]pyrimidin-2(1H)-one] | < 13 nM
19 | Nc1nc(=O)n(-c2cccnc2C(F)(F)F)c2nc(C3CC3)ccc12 [Example 43, 4-amino-7-cyclopropyl-1-(2-(trifluoromethyl)pyridin-3-yl)pyrido[2,3-d]pyrimidin-2(1H)-one] | < 13 nM
20 | Cn1nccc1-n1c(=O)nc(N)c2ccc(C3CC3)nc21 [Example 44, 4-amino-7-cyclopropyl-1-(2-methylpyrazol-3-yl)pyrido[2,3-d]pyrimidin-2-one] | < 13 nM
21 | Nc1nc(=O)n(-c2cccc3c2CCO3)c2cc(C3CC3)ccc12 [Example 45, 4-amino-7-cyclopropyl-1-(2,3-dihydrobenzofuran-4-yl)quinazolin-2(1H)-one] | < 13 nM
22 | Nc1nc(=O)n([C@@H]2CCCOC2)c2cc(C(F)(F)F)ccc12 [Example 46, (R)-4-amino-1-(tetrahydro-2H-pyran-3-yl)-7-(trifluoromethyl)quinazolin-2(1H)-one] | 31 nM

Row | SMILES | IC50
23 | Cc1ccncc1-n1c(=O)nc(N)c2ccc(C3CC3)nc21 [Example 47, 4-amino-7-cyclopropyl-1-(4-methylpyridin-3-yl)pyrido[2,3-d]pyrimidin-2(1H)-one] | < 13 nM
24 | CCc1ccc2c(N)nc(=O)n(-c3cccnc3C)c2c1 [Example 48, 4-amino-7-ethyl-1-(2-methylpyridin-3-yl)quinazolin-2(1H)-one] | < 13 nM
25 | Cc1ncoc1-n1c(=O)nc(N)c2ccc(C3CC3)nc21 [Example 50, 4-amino-7-cyclopropyl-1-(4-methyloxazol-5-yl)pyrido[2,3-d]pyrimidin-2-one] | 19 nM
26 | Cc1ncsc1-n1c(=O)nc(N)c2ccc(C3CC3)nc21 [Example 51, 4-amino-7-cyclopropyl-1-(4-methylthiazol-5-yl)pyrido[2,3-d]pyrimidin-2-one] | < 13 nM
27 | Cc1ccccc1-n1c(=O)nc(N)c2cnc(C3CC3)cc21 [Example 52, 4-amino-7-cyclopropyl-1-(o-tolyl)pyrido[4,3-d]pyrimidin-2(1H)-one] | 43 nM
28 | Cc1ncccc1-n1c(=O)nc(N)c2ccc(C3CCC3)nc21 [Example 53, 4-amino-7-cyclobutyl-1-(2-methyl-3-pyridyl)pyrido[2,3-d]pyrimidin-2-one] | < 13 nM
29 | COc1ncccc1-n1c(=O)nc(N)c2ccc(C3CCCCO3)nc21 (stereo not shown) [Example 54, 4-amino-1-(2-methoxy-3-pyridyl)-7-tetrahydropyran-2-yl-pyrido[2,3-d]pyrimidin-2-one] | 140 nM
30 | Cc1ncncc1-n1c(=O)nc(N)c2ccc(C3CCCC3)nc21 [Example 55, 4-amino-7-cyclopentyl-1-(4-methylpyrimidin-5-yl)pyrido[2,3-d]pyrimidin-2-one] | 17 nM
31 | Cc1ncccc1-n1c(=O)nc(N)c2ccc(C3CCCC3)nc21 [Example 56, 4-amino-7-cyclopentyl-1-(2-methyl-3-pyridyl)pyrido[2,3-d]pyrimidin-2-one] | < 13 nM
32 | Cc1ncccc1-n1c(=O)nc(N)c2ccc(C(C)(C)F)cc21 [Example 58, 4-amino-7-(2-fluoropropan-2-yl)-1-(2-methylpyridin-3-yl)quinazolin-2-one] | 22 nM
33 | Cc1ncccc1-n1c(=O)nc(N)c2c(F)cc(C(F)(F)F)cc21 [Example 59, 4-amino-5-fluoro-1-(2-methylpyridin-3-yl)-7-(trifluoromethyl)quinazolin-2 (1H)-one] | 14 nM
34 | COc1nccc(F)c1-n1c(=O)nc(N)c2ccc(C3CC3)nc21 [Example 60, 4-amino-7-cyclopropyl-1-(4-fluoro-2-methoxypyridin-3-yl)pyrido[2,3-d]pyrimidin-2(1H)-one] | 20 nM
35 | CCn1nccc1-n1c(=O)nc(N)c2ccc(C3CC3)nc21 [Example 61, 4-amino-7-cyclopropyl-1-(1-ethyl-1H-pyrazol-5-yl)pyrido[2,3-d]pyrimidin-2(1H)-one] | < 13 nM
36 | Cc1ccccc1-n1c(=O)nc(N)c2ccc(Cl)nc21 [Example 62, 4-amino-7-chloro-1-(o-tolyl)pyrido[2,3-d]pyrimidin-2(1H)-one] | 20 nM
37 | Nc1nc(=O)n(-c2cccc3c2OCC3)c2nc(C3CC3)ccc12 [Example 63, 4-amino-7-cyclopropyl-1-(2,3-dihydrobenzofuran-7-yl)pyrido[2,3-d]pyrimidin-2(1H)-one] | 15 nM
38 | Nc1nc(=O)n(-c2ccccc2Cl)c2nc(C3CC3)ccc12 [Example 64, 4-amino-1-(2-chlorophenyl)-7-cyclopropylpyrido[2,3-d]pyrimidin-2-one] | < 13 nM
39 | COc1c(C#N)cccc1-n1c(=O)nc(N)c2cc(Cl)c(C3CC3)nc21 [Example 65, 3-(4-amino-6-chloro-7-cyclopropyl-2-oxopyrido[2,3-d]pyrimidin-1(2H)-yl)-2-methoxybenzonitrile] | 18 nM
40 | COc1ncccc1-n1c(=O)nc(N)c2cc(Cl)c(C3CC3)nc21 [Example 66, 4-amino-6-chloro-7-cyclopropyl-1-(2-methoxypyridin-3-yl)pyrido[2,3-d]pyrimidin-2(1H)-one] | 13 nM
41 | Cc1cc(F)ccc1-n1c(=O)nc(N)c2ccc(C3CC3)nc21 [Example 67, 4-amino-7-cyclopropyl-1-(4-fluoro-2-methylphenyl)pyrido[2,3-d]pyrimidin-2-one] | 18 nM
42 | CCc1cccc(-n2c(=O)nc(N)c3ccc(C4CC4)nc32)c1 [Example 68, 4-amino-7-cyclopropyl-1-(3-ethylphenyl)pyrido[2,3-d]pyrimidin-2(1H)-one] | < 13 nM
43 | Cc1cccc(-n2c(=O)nc(N)c3ccc(C4CC4)nc32)c1 [Example 69, 4-amino-7-cyclopropyl-1-(m-tolyl)pyrido[2,3-d]pyrimidin-2(1H)-one] | < 13 nM
